Ends that are not written are not given here. * marks the point of attachment. Biotin = O=C1N[C@H]2[C@H](CS[C@H]2CCCCC(=O)*)N1
Legend:
[1] = ELISA of phage-peptide clones on pig skin (specificity control); type: binding; settings: for Pig Skin A450: phage ELISA, anti-M13 HRP conjugate, mean of at least three replicates
Procedure: (§1) Enzyme-linked immunosorbent assay (ELISA) was used to evaluate the hair-binding specificity of selected phage-peptide clones. Phage-peptide clones identified in Examples 1 and 2 along with a randomly chosen control G-F9, KHGPDLLRSAPR (given as SEQ ID NO:63) were amplified. More than […] (plaque forming units) phage were added to pre-blocked hair surfaces.
(§2) A unique hair or pig skin-bottom 96-well apparatus was created by applying one layer of PARAFILM® under the top 96-well block of a Minifold I Dot-Blot System (Schleicher & Schuell, Inc., Keene, N.H.), adding hair or a layer of hairless pig skin on top of the PARAFILM® cover, and then tightening the apparatus. For each clone to be tested, the hair-covered well was incubated for 1 h at room temperature with 200 μL of blocking buffer, consisting of 2% non-fat dry milk (Schleicher & Schuell, Inc.) in TBS. A second Minifold system with pig skin at the bottom of the wells was treated with blocking buffer simultaneously to serve as a control. The blocking buffer was removed by inverting the systems and blotting them dry with paper towels. The systems were rinsed 6 times with wash buffer consisting of TBST-0.05%. The wells were filled with 200 μL of TBST-0.5% containing 1 mg/mL BSA and then 10 μL (over […]) of purified phage stock was added to each well. The samples were incubated at 37° C. for 15 min with slow shaking. The non-binding phage was removed by washing the wells 10 to 20 times with TBST-0.5%. Then, 100 μL of horseradish peroxidase/anti-M13 antibody conjugate (Amersham USA, Piscataway, N.J.), diluted 1:500 in the blocking buffer, was added to each well and incubated for 1 h at room temperature. The conjugate solution was removed and the wells were washed 6 times with TBST-0.05%. TMB (3,3′,5,5′-tetramethylbenzidine) substrate (200 μL), obtained from Pierce Biotechnology (Rockford, Ill.) was added to each well and the color was allowed to develop for between 5 to 30 min, typically for 10 min, at room temperature. Then, stop solution (200 μL of 2 M H2SO4) was added to each well and the solution was transferred to a 96-well plate and the A450 was measured using a microplate spectrophotometer (Molecular Devices, Sunnyvale, Calif.). The resulting absorbance values, reported as the mean of at least three replicates, and the standard error of the mean (SEM) are given in Table 10.

[2] = ELISA of phage-peptide clones on hair; type: binding, human; settings: for Hair A450: phage ELISA, anti-M13 HRP conjugate, mean of at least three replicates
Procedure: as §1, §2

[3] = ELISA-based MB50 determination on pig skin; type: binding; settings: for binding affinity for skin: in words, from MB50; for EC50: substrate Pig Skin, biotinylated peptide
Source text: (§3) The term “MB50” refers to the concentration of the binding peptide that gives a signal that is 50% of the maximum signal obtained in an ELISA-based binding assay as described herein. The MB50 provides an indication of the strength of the binding interaction or affinity of the components of the complex. The lower the value of MB50, the stronger the interaction of the peptide with its corresponding substrate.
(§4) Hair-binding and skin-binding peptides were synthesized by SynPep Inc. (Dublin, Calif.). The peptides were biotinylated by adding a biotinylated lysine residue at the C-terminus of the amino acid binding sequences for detection purposes and an amidated cysteine was added to the C-terminus of the sequence.
(§5) For hair samples, the procedure used was as follows. The setup of the surface specific 96-well system used was the same as that described in Example 5. Briefly, the 96-wells with hair or pig skin surfaces were blocked with blocking buffer (SUPERBLOCK™ from Pierce Chemical Co., Rockford, Ill.) at room temperature for 1 h, followed by six washes with TBST-0.5%, 2 min each, at room temperature. Various concentrations of biotinylated, binding peptide were added to each well, incubated for 15 min at 37° C., and washed six times with TBST-0.5%, 2 min each, at room temperature. Then, streptavidin-horseradish peroxidase (HRP) conjugate (Pierce Chemical Co.) was added to each well (1.0 μg per well), and incubated for 1 h at room temperature. After the incubation, the wells were washed six times with TBST-0.5%, 2 min each at room temperature. Finally, the color development and the measurement were performed as described in Example 5.
For the measurement of MB50 of the peptide-skin complexes, the following procedure was used. First, the pigskin was treated to block the endogenous biotin in the skin. This was done by adding streptavidin to the blocking buffer. After blocking the pigskin sample, the skin was treated with D-biotin to block the excess streptavidin binding sites. The remaining steps were identical to those used for the hair samples.
(§6) The results were plotted as A450 versus the concentration of peptide using GraphPad Prism 4.0 (GraphPad Software, Inc., San Diego, Calif.).

[4] = Titer-based assay of hair-binding phage clones; design: species or system human; settings: output pfu retained by 10 mg of normal hair; input 10^14 pfu; acid-eluted phage
Procedure: Phage clones displaying specific peptides were used for comparing the binding characteristics of different peptide sequences. A titer-based assay was used to quantify the phage binding. This assay measures the output pfu retained by 10 mg of hair surfaces, having a signal to noise ratio of 10^3 to 10^4. The input for all the phage clones was 10^14 pfu. It should be emphasized that this assay measures the peptide-expressing phage particle, rather than peptide binding.
Normal hairs were cut into 0.5 cm lengths and 10 mg of the cut hair was placed in each well of a 96-well filter plate (Qiagen). Then, the wells were filled with blocking buffer containing 1 mg/mL BSA in TBST-0.5% and incubated for 1 h at 4° C. The hairs were washed 5 times with TBST-0.5%. The wells were then filled with 1 mL of TBST-0.5% containing 1 mg/mL BSA and then purified phage clones (10^14 pfu) were added to each well. The hair samples were incubated for 15 min at room temperature and then washed 10 times with TBST-0.5%. The hairs were transferred to a clean well and 1.0 mL of a non-specific elution buffer, consisting of 1 mg/mL BSA in 0.2 M Glycine-HCl at pH 2.2, was added to each well. The samples were incubated for 10 min and then 160 μL of neutralization buffer (1 M Tris-HCl, pH 9.2) was added to each well. The eluted phage from each well were transferred to a new tube for titering and sequencing analysis.
To titer the bound phage, the eluted phage was diluted with SM buffer to prepare 10-fold serial dilutions of 10^1 to 10^8. A 10 μL aliquot of each dilution was incubated with 200 μL of mid-log phase E. coli ER2738 (New England BioLabs), and grown in LB medium for 20 min and then mixed with 3 mL of agarose top (LB medium with 5 mM MgCl2, and 0.7% agarose) at 45° C. This mixture was spread onto a LB medium/IPTG/Xgal (5-bromo-4-chloro-3-indolyl-β-D-galactopyranoside) plate (LB medium with 15 g/L agar, 0.05 g/L IPTG, and 0.04 g/L Xgal) and incubated overnight at 37° C.

[5] = ELISA-based MB50 determination on hair; type: binding, human; settings: for binding affinity for respective substrate (hair): in words, from MB50; for EC50: biotinylated peptide
Source text: as §3, §4, §5, §6

[6] = Peptide competition ELISA with D21 phage; type: binding, human
Procedure: The purpose of this Example was to test the peptide binding site specificity and affinity of the hair-binding peptide D21 using a competition ELISA. The ELISA assay only detects phage particles that remain bound to the hair surface.
The synthetic hair-binding peptide D21, given as SEQ ID NO:46 was synthesized by SynPep (Dublin, Calif.). As a control, an unrelated synthetic skin-binding peptide (SK-1), given as SEQ ID NO:61, was added to the system. The experimental conditions were similar to those used in the ELISA method described in Example 5. Briefly, 100 μL of Binding Buffer (1×TBS with 0.1% Tween® 20 and 1 mg/mL BSA) and 10^11 pfu of the pure D21 phage particles were added to each well of the 96-well filter plate, which contained a sample of normal hair. The synthetic peptide (100 μg) was added to each well (corresponding to concentration of 0.8 mM). The reactions were carried out at room temperature for 1 h with gentle shaking, followed by five washes with TBST-0.5%. The remaining steps were identical to the those used in the ELISA method described in Example 5. Each individual ELISA test was performed in triplicate; the values in Table 11 are the means of the triplicate determinations.

[7] = in words, from the data in Table 10

Substance	Pig Skin A450 [1]	Hair A450 [2]	Phage Titer [4]	further results
AKTHKHPAPSYS [Clone C13]	0.024	0.375		
Binding Peptide D21: biotinylated hair-binding peptide D21 (binding sequence SEQ ID NO:46) (RTNAADHPAAVTK(Biotin)C-NH2; N-terminus assumed; SMILES CC(C)[C@H](NC(=O)[C@H](C)NC(=O)[C@H](C)NC(=O)[C@@H]1CCCN1C(=O)[C@H](Cc1c[nH]cn1)NC(=O)[C@H](CC(=O)O)NC(=O)[C@H](C)NC(=O)[C@H](C)NC(=O)[C@H](CC(N)=O)NC(=O)[C@@H](NC(=O)[C@@H](N)CCCNC(=N)N)[C@@H](C)O)C(=O)N[C@H](C(=O)N[C@@H](CCCCNC(=O)CCCC[C@@H]1SC[C@@H]2NC(=O)N[C@@H]21)C(=O)N[C@@H](CS)C(N)=O)[C@@H](C)O)				binding affinity for skin [3]: relatively low
DLHTVYH (displayed on phage; Hair-binding peptide) [Clone A]			7.50 × 10^4	
EQISGSLVAAPW [Clone A5]	0.256	0.431		
GPHDTSSGGVRPNLHHTSKKEKRENRKVPFYSHSVTSRGNV [Clone D5]	0.104	0.652		
GPHDTSSGGVRPNLHHTSKKEKRENRKVPFYSHSVTSRGNV [Clone G]			1.67 × 10^8	
HIKPPTR (displayed on phage; Hair-binding peptide) [Clone B]			1.21 × 10^5	
HLTVPWRGGGSAVPFYSHSQITLPNH [Clone F]			1.11 × 10^6	
HPVWPAI (displayed on phage; Hair-binding peptide) [Clone D]			8.20 × 10^4	
I-B5 (TPPELLHGDPRS; Hair-binding peptide) [listing 1 of 2 here]				binding affinity for respective substrate (hair) [5]: high; binding affinity for skin [3]: relatively low
I-B5 (TPPELLHGDPRS; Hair-binding peptide) [listing 2 of 2 here]				EC50 ([5]; substrate Normal and Bleached Hair): 0.3 µM; EC50 [3]: > 100 µM
KHGPDLLRSAPR [Clone G-F9, reference compound]	−0.137	0.074		
KHPTYRQ (displayed on phage; Hair-binding peptide) [Clone H]			1.30 × 10^6	
LGIPQNL (displayed on phage; Hair-binding peptide) [Clone D39]	0.086	0.685		
LPRIANTWSPS [Clone F35]				binding affinity for respective substrate (hair) [5]: high; EC50 ([5]; substrate Bleached Hair): 3 µM
MHAHSIA (displayed on phage; Hair-binding peptide) [Clone A36]	0.173	0.585		
MPKYYLQ (displayed on phage; Hair-binding peptide) [Clone J]			1.24 × 10^6	
MPLYYLQ (displayed on phage; Hair-binding peptide) [Clone E]			1.70 × 10^5	
NSPGYQADSVAIG [Clone D30]	0.287	0.414		
RTNAADHPAAVT [Clone D21]				A450 ([6]; 10^11 pfu D21 phage on normal hair, synthetic peptide 100 μg per well (0.8 mM) where added, mean of triplicate): 1.878
RTNAADHPAAVT [Peptide D21]	0.04	1.051		affinity for pig skin [1, 7]: very low; competition with the phage clone D21 for the same binding sites on the hair surface ([6]; in words): does compete; binding affinity for hair [2, 7]: very strong; selectivity for hair compared to pig skin [2, 7]: highest; binding affinity for respective substrate (hair) [5]: high; EC50 ([5]; substrate Normal Hair): 2 µM; EC50 [3]: 40 µM
SLNWVTIPGPKI [Clone C10]	0.032	0.542		
TAATTSP (displayed on phage; Hair-binding peptide) [Clone B1]	0.127	0.42		
TDMQAPTKSYSN [Clone C5]	0.047	0.548		
TPALDGLRQPLR [Clone C18]	0.132	0.34		
TPFHSPENAPGS [SK-1]				binding affinity for skin [3]: high; EC50 [3]: 0.7 µM
